Experimental data as given in publication PMC9386255, “Specialized acyl carrier protein used by serine palmitoyltransferase to synthesize sphingolipids in Rhodobacteria” (Frontiers in Microbiology, 2022).

Key:
Assay type in all cases: biochemical
[1] = biological target: T1, FadDSm, acyl-CoA synthetase FadD from S. meliloti 1021 (Sinorhizobium meliloti, UniProt Q7APF7); test: [3H]palmitoyl-CoA formation, heptane extraction, scintillation counting; conditions: 10 mM ATP, 10 mM MgSO4, 1 mM Triton X-100, pH 8.0, 37 C, 40 uM CoA
T1 construct: full length, His6-tagged (pET28a, pECH3), E. coli BL21(DE3) pLysS host, IMAC-purified, tag kept
T1 sequence (Q7APF7 entry or part of it): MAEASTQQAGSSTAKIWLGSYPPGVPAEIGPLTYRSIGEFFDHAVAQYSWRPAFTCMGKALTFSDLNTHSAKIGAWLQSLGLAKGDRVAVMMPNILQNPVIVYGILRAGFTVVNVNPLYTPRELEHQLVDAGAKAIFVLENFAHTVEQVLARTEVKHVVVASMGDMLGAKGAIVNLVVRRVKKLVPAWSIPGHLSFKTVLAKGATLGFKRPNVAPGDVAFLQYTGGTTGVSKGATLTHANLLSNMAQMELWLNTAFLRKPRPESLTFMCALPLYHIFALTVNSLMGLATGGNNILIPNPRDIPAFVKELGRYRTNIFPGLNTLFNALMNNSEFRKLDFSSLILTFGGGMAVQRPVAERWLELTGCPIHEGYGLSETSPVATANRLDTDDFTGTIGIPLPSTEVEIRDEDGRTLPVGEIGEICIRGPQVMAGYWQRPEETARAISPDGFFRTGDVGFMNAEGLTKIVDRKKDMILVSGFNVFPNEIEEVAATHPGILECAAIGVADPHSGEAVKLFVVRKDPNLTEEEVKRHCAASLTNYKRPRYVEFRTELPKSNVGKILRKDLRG

[2] = biological target: T2, SPTCc (CC_1162), serine palmitoyltransferase (Caulobacter vibrioides, UniProt Q9A932); test: L-[…]serine incorporation into 3-oxo-sphinganine, TLC autoradiography, empty-vector control; conditions: 10 uM palmitoyl-CoA, 432 uM L-[14C]serine, 10 uM pyridoxal phosphate, pH 7.5, 30 C; minor product
T2 construct: full length, expressed from pET9a (pJPG08) in E. coli BL21(DE3) pLysS, cell-free extract
T2 sequence (Q9A932 1-404): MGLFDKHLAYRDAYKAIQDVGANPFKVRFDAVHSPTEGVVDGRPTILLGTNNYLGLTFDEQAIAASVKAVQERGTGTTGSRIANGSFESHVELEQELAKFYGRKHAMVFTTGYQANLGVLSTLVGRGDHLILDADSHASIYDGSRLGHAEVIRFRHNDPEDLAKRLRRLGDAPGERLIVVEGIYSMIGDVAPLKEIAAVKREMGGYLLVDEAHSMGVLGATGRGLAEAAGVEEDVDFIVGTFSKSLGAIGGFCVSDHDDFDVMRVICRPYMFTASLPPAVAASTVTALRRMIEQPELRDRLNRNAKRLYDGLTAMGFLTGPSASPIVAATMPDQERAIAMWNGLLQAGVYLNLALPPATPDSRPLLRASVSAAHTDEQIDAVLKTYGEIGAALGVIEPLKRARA

[3] = biological target: T3, SPTEc (ECD_02854), serine palmitoyltransferase (Escherichia coli, UniProt B1LEF2); test: as above; conditions: 10 uM palmitoyl-CoA, 432 uM L-[14C]serine, 10 uM pyridoxal phosphate, pH 7.5, 30 C; minor product
T3 construct: gene EcSMS35_3263; full length, expressed from pET9a (pJPG01) in E. coli BL21(DE3) pLysS, cell-free extract
T3 sequence (B1LEF2 1-390): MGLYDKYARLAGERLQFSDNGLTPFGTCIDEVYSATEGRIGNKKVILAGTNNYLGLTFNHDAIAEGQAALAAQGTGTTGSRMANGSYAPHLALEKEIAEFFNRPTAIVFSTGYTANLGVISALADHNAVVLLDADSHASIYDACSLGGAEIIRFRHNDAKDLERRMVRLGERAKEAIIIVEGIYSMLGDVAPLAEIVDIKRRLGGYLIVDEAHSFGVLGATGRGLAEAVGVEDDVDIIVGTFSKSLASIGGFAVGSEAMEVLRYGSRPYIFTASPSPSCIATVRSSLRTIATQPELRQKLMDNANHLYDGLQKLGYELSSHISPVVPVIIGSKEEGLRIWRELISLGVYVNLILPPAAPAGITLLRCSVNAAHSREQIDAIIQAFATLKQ

[4] = biological target: T4, SPTSw (Swit_3900), serine palmitoyltransferase (Rhizorhabdus wittichii, UniProt A0A9J9HEF8); test: as above; conditions: 10 uM palmitoyl-CoA, 432 uM L-[14C]serine, 10 uM pyridoxal phosphate, pH 7.5, 30 C; minor product
T4 construct: full length, expressed from pET9a (pJPG02) in E. coli BL21(DE3) pLysS, cell-free extract
T4 sequence (A0A9J9HEF8 1-400): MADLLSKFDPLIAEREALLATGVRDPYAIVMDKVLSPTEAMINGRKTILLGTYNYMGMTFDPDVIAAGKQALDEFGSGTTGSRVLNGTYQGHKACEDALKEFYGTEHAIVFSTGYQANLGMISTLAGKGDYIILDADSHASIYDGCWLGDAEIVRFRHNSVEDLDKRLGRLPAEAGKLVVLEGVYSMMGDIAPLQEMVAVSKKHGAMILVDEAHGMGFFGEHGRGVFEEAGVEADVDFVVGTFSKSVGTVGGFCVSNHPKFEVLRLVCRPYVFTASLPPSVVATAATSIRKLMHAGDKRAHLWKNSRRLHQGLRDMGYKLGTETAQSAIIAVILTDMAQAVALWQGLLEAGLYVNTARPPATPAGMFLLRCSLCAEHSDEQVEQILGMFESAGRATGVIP

With `CC(C)(COP(=O)(O)OP(=O)(O)OC[C@H]1O[C@@H](n2cnc3c(N)ncnc32)[C@H](O)[C@@H]1OP(=O)(O)O)[C@@H](O)C(=O)NCCC(=O)NCCS` [CoA] the “[3H]palmitoyl-CoA formation, heptane extraction, scintillation counting” value ([1]; 200 uM [3H]palmitate) was “acyl-CoA synthetase FadD is able to form acyl-CoA”.
`CCCCCCCCCCCCCCCC(=O)O` [palmitate] was tested, and the “[3H]palmitoyl-CoA formation, heptane extraction, scintillation counting” value ([1]; 200 uM palmitate, labelled compound) was “Using FadDSm in the acylation assay resulted in an increase in the amount of acyl-CoA”.
For `CCCCCCCCCCCCCCCC(=O)SCCNC(=O)CCNC(=O)[C@H](O)C(C)(C)COP(=O)(O)OP(=O)(O)OC[C@H]1O[C@@H](n2cnc3c(N)ncnc32)[C@H](O)[C@@H]1OP(=O)(O)O` [palmitoyl-CoA], the “L-[14C]serine incorporation into 3-oxo-sphinganine, TLC autoradiography, empty-v” value [2] was “using the SPTs from C. crescentus, E. coli BL21(DE3) or S. wittichii, and palmitoyl-CoA as thioester”, the “L-[14C]serine incorporation into 3-oxo-sphinganine, TLC autoradiography, empty-v” value [3] was “using the SPTs from C. crescentus, E. coli BL21(DE3) or S. wittichii, and palmitoyl-CoA as thioester” and the “L-[14C]serine incorporation into 3-oxo-sphinganine, TLC autoradiography, empty-v” value [4] was “using the SPTs from C. crescentus, E. coli BL21(DE3) or S. wittichii, and palmitoyl-CoA as thioester”.
